# In patent US9121022B2, “Method for controlling herbicide-resistant plants” (priority 2010, dated 2015):
# What was measured:
# [1] = system: endogenous Nicotiana benthamiana Argonaute-1 (AGO1) gene; test: AGO1 anti-sense polynucleotides with or without PDS anti-sense polynucleotide, systemic bleaching (Example 33); format: in vivo; conditions: PDS 25 nanomoles; AGO1 50 nanomoles of each of 14 polynucleotides; applied on separate leaves
# Text: A second set of experiments was designed to investigate the effects of silencing a component of the endogenous RNAi silencing pathway in a plant. Argonaute (AGO) proteins are components of the RNA-induced silencing complex (RISC) which binds small RNAs in the RNAi silencing process. Suppression of Argonaute would be expected to reduce the observed phenotypic effect caused by an RNAi silencing process. AGO1 anti-sense polynucleotides with the sequences […] (HL510, SEQ ID NO:300), […] (HL511, SEQ ID NO:301), […] (HL512, SEQ ID NO:302), […] (HL513, SEQ ID NO:303), […] (HL514, SEQ ID NO:304), […] (HL515, SEQ ID NO:305), […] (HL516, SEQ ID NO:306), […] (HL517, SEQ ID NO:307), […] (HL518, SEQ ID NO:308), […] (HL519, SEQ ID NO:309), […] (HL520, SEQ ID NO:310), […] (HL521, SEQ ID NO:311), […] (HL522, SEQ ID NO:312), […] (HL523, SEQ ID NO:313) were designed for the endogenous Nicotiana benthamiana Argonaute-1 (AGO1) gene, based on two Nicotiana benthamiana AGO1-2 partial cDNA sequences, • […] […] […] […] […] […] […] […] […] […] […] […] […] […] […] […] […] […] […] […] […] […] […] […] […] […] […] […] […] […] […] […] […] […] […] […] […] […] […] […] […] […] […] GC (SEQ ID NO:314) and • […] […] […] […] […] […] […] […] […] […] […] […] […] […] […] […] […] […] […] […] […] […] […] […] […] […] […] […] […] […] […] […] […] […] […] […] […] […] […] […] […] […] […] […] […] […] […] […] (SEQ ID NO:315).
# Nicotiana benthamiana plants were treated using a procedure similar to that described in Example 12. […]
# [2] = system: Nicotiana benthamiana phytoene desaturase; test: topical PDS oligonucleotides/polynucleotides on tobacco, bleaching and chlorophyll (Example 10); format: in vivo; conditions: another assay
# Text: The target gene used was a Nicotiana benthamiana phytoene desaturase (SEQ ID NO:2), shown in FIG. 10; the segment consisting of nucleotides 421-1120 of SEQ ID NO:2 (underlined text in FIG. 10) was used to design a 700-mer dsRNA polynucleotide (“PDS 700-mer”) and the segment consisting of nucleotides 914-1113 of SEQ ID NO:2 (bolded underlined text in FIG. 10) was used to design a 200-mer dsRNA polynucleotide (“PDS 200-mer”). FIG. 11 schematically depicts the location of the sequences of these oligonucleotides and polynucleotides in relation to the […] (SEQ ID NO:2) sequence. Non-plant sequences obtained from corn rootworm (“CRW”), SEQ ID NOs:27, 28, 29, and 30 were used as non-homologous controls. Some of the polynucleotides included a T7 promoter sequence (indicated by lower-case text in Table 3) that is a promoter recognized by a bacteriophage T7 RNA polymerase.
# The following procedure was used for all assays described in this example. Four-week old Nicotiana benthamiana plants were used in all assays. Plants were treated with 0.1% SILWET L-77® brand surfactant solution freshly made with ddH2O. Two fully expanded leaves per plant (one cotyledon, one true leaf) were dipped into the SILWET L-77® brand surfactant solution for a few seconds, and allowed to dry for 15-30 minutes before application of the polynucleotide composition. Final concentration for each oligonucleotide or polynucleotide was 25 microM (in 0.01% SILWET L-77® brand surfactant, 5 mM sodium phosphate buffer, pH 6.8) unless otherwise stated. 20 microliters of the solution was applied to the top surface of each of the two pre-treated leaves to provide a total of 40 microliters (1 nmol oligonucleotide or polynucleotide) for each plant. Leaf bleaching was observed 3 days post treatment.
# FIG. 13 illustrates phenotypes observed at day 12 after treatment in another assay of the effect from twelve combinations of polynucleotides or oligonucleotides (see Table 4). Table 4 also lists observations of visible bleaching of the plants at day 5 after treatment and the results of chlorophyll measurements taken at days 7 and 12 after treatment. Chlorophyll measurements are an indication of suppression of the target gene phytoene desaturase, and measurements were taken at 6 spots on the apical area, focussing on visibly bleached leaves or (in plants without visible bleaching) on leaves in equivalent locations on the plants; lower chlorophyll measurement values indicate suppression of phytoene desaturase.
sequence,measurement,setting,value
"CATCTCCTTTAATTGTACTGC (DNA, backbone not given here) [PDS 21-mer anti-sense ssDNA]",systemic bleaching / difference to buffer,[1],displayed systemic bleaching
same,bleaching of apical leaves (FIG. 15),[2],apical leaf bleaching observed
